According to US7700782B2, “Compounds 569” (AstraZeneca AB, priority 2007, dated 2010):
Counter-ions that a name gives are not always drawn.

These compounds were tested against T1, Adrenergic β2 (Homo sapiens, UniProt P07550) (assay: Adrenergic β2 mediated cAMP production in H292 cells (AlphaScreen cAMP detection)). Details: Intrinsic Activity, fraction relative to the maximum activity determined for formoterol.
T1 construct: Adherent H292 cells were removed from tissue culture flasks; endogenous in cells; host or cells: H292 cells
Type: cell-based
Outline: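 H292 cells, 5000/well, preincubated 10 min with rolipram (final 300 μM, 1.6% DMSO) in HEPES pH 7.4 HBSS, then compound 60 min at room temperature. Lysate cAMP quantified by AlphaScreen against a cAMP standard curve. pEC50 and intrinsic activity (fraction of formoterol maximum) from four-parameter logistic fits.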

T1 sequence (P07550 whole entry): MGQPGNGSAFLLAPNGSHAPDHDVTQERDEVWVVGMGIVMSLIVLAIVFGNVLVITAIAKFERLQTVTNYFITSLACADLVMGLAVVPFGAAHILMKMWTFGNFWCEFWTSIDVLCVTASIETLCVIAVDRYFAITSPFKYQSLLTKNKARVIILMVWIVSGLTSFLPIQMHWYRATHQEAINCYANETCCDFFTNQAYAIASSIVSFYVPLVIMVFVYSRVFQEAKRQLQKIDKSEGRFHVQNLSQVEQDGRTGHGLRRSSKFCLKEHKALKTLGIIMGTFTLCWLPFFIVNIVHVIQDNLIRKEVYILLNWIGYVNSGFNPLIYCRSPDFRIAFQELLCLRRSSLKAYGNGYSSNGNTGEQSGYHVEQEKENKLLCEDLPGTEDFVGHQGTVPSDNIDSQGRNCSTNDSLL

Compound	β2 Int Act
O=C(CCNCCc1c(F)cccc1F)N(CCNCCc1ccc(O)c2[nH]c(=O)sc12)C1CCCCCC1 [Example 84, N^1-Cycloheptyl-N^3-[2-(2,6-difluorophenyl)ethyl]-N^1-(2-{[2-(4-hydroxy-2-oxo-2,3-dihydro-1,3-benzothiazol-7-yl)ethyl]amino}ethyl)-β-alaninamide bis-trifluoroacetic acid salt]	0.89
Cc1cccc(CCNCCC(=O)N(CCNCCc2ccc(O)c3[nH]c(=O)sc23)C2CCCCCC2)c1 [Example 85, N^1-Cycloheptyl-N^1-(2-{[2-(4-hydroxy-2-oxo-2,3-dihydro-1,3-benzothiazol-7-yl)ethyl]amino}ethyl)-N^3-[2-(3-methylphenyl)ethyl]-β-alaninamide bis-trifluoroacetic acid salt]	0.65
COc1ccc(CCNCCC(=O)N(CCNCCc2ccc(O)c3[nH]c(=O)sc23)C2CCCCCC2)cc1OC [Example 86, N^1-Cycloheptyl-N^3-[2-(3,4-dimethoxyphenyl)ethyl]-N^1-(2-{[2-(4-hydroxy-2-oxo-2,3-dihydro-1,3-benzothiazol-7-yl)ethyl]amino}ethyl)-β-alaninamide bis-trifluoroacetic acid salt]	0.43
O=C(CCNCCc1ccc(O)c2[nH]c(=O)sc12)N(CCNCCc1ccc(O)c2[nH]c(=O)sc12)C1CCCCCC1 [Example 87, N^1-Cycloheptyl-N^3-[2-(4-hydroxy-2-oxo-2,3-dihydro-1,3-benzothiazol-7-yl)ethyl]-N^1-(2-{[2-(4-hydroxy-2-oxo-2,3-dihydro-1,3-benzothiazol-7-yl)ethyl]amino}ethyl)-β-alaninamide bis-trifluoroacetic acid salt]	0.72
O=C(CCNCCc1cccc(F)c1)N(CCNCCc1ccc(O)c2[nH]c(=O)sc12)C1CCCCC1 [Example 96, N-Cyclohexyl-N^3-[2-(3-fluorophenyl)ethyl]-N-(2-{[2-(4-hydroxy-2-oxo-2,3-dihydro-1,3-benzothiazol-7-yl)ethyl]amino}ethyl)-β-alaninamide dihydrobromide salt]	0.85

The next lines start with the values.

β2 Int Act	Compound
0.37	O=C(CCNCCc1ccc2c(c1)OCCO2)N(CCNCCc1ccc(O)c2[nH]c(=O)sc12)C1CCCCCC1 [Example 88, N^1-Cycloheptyl-N^3-[2-(2,3-dihydro-1,4-benzodioxin-6-yl)ethyl]-N^1-(2-{[2-(4-hydroxy-2-oxo-2,3-dihydro-1,3-benzothiazol-7-yl)ethyl]amino}ethyl)-β-alaninamide bis-trifluoroacetic acid salt]
0.9	O=C(CCNCCc1ccc(O)c(Cl)c1)N(CCNCCc1ccc(O)c2[nH]c(=O)sc12)C1CCCCC1 [Example 89, N^3-[2-(3-chloro-4-hydroxyphenyl)ethyl]-N^1-cyclohexyl-N^1-(2-{[2-(4-hydroxy-2-oxo-2,3-dihydro-1,3-benzothiazol-7-yl)ethyl]amino}ethyl)-β-alaninamide bis-trifluoroacetic acid salt]
0.71	O=C(CCNCCc1cccc(O)c1)N(CCNCCc1ccc(O)c2[nH]c(=O)sc12)C1CCCCCCC1 [Example 90, N^1-Cyclooctyl-N^1-(2-{[2-(4-hydroxy-2-oxo-2,3-dihydro-1,3-benzothiazol-7-yl)ethyl]amino}ethyl)-N^3-[2-(3-hydroxyphenyl)ethyl]-β-alaninamide bis-trifluoroacetic acid salt]
0.75	CC1(C)CCC(N(CCNCCc2ccc(O)c3[nH]c(=O)sc23)C(=O)CCNCCc2cccc(O)c2)CC1 [Example 91, N^1-(4,4-Dimethylcyclohexyl)-N^1-(2-{[2-(4-hydroxy-2-oxo-2,3-dihydro-1,3-benzothiazol-7-yl)ethyl]amino}ethyl)-N^3-[2-(3-hydroxyphenyl)ethyl]-β-alaninamide bis-trifluoroacetic acid salt]
0.81	O=C(NCc1ccccc1)c1ccc(CCNCCC(=O)N(CCNCCc2ccc(O)c3[nH]c(=O)sc23)C2CCCCCC2)cc1 [Example 100, N-Benzyl-4-[2-({3-[cycloheptyl(2-{[2-(4-hydroxy-2-oxo-2,3-dihydro-1,3-benzothiazol-7-yl)ethyl]amino}ethyl)amino]-3-oxopropyl}amino)ethyl]benzamide bis-trifluoroacetic acid salt]
0.98	CCCC[C@@H](C)N(CCNCCc1ccc(O)c2[nH]c(=O)sc12)C(=O)CCNCCc1ccccc1 [Example 101, N-(2-{[2-(4-Hydroxy-2-oxo-2,3-dihydro-1,3-benzothiazol-7-yl)ethyl]amino}ethyl)-N-[(1R)-1-methylpentyl]-N^3-(2-phenylethyl)-β-alaninamide bis-trifluoroacetic acid salt]
0.23	CCCC[C@H](C)N(CCNCCc1ccc(O)c2[nH]c(=O)sc12)C(=O)CCNCCc1ccccc1 [Example 102, N-(2-{[2-(4-Hydroxy-2-oxo-2,3-dihydro-1,3-benzothiazol-7-yl)ethyl]amino}ethyl)-N-[(1S)-1-methylpentyl]-N^3-(2-phenylethyl)-β-alaninamide bis-trifluoroacetic acid salt]
0.81	CC(CN(C(=O)CCNCCc1cccc(F)c1)C1CCCCCC1)NCCc1ccc(O)c2[nH]c(=O)sc12 (stereo not drawn) [Example 104, N-Cycloheptyl-N^3-[2-(3-fluorophenyl)ethyl]-N-(2-{[2-(4-hydroxy-2-oxo-2,3-dihydro-1,3-benzothiazol-7-yl)ethyl]amino}propyl)-β-alaninamide bis-trifluoroacetic acid salt]
0.86	CC(CN(C(=O)CCNCCc1ccccc1)C1CCCCC1)NCCc1ccc(O)c2[nH]c(=O)sc12 (stereo not drawn) [Example 105, N-Cyclohexyl-N-(2-{[2-(4-hydroxy-2-oxo-2,3-dihydro-1,3-benzothiazol-7-yl)ethyl]amino}propyl)-N^3-(2-phenylethyl)-β-alaninamide bis-trifluoroacetic acid salt]

Same assay, conditions: Intrinsic Activity, fraction relative to the maximum activity determined for formoterol, dihydrobromide salt

Compound	β2 Int Act
O=C(CCNCCc1ccccc1)N(CCNCCc1ccc(O)c2[nH]c(=O)sc12)C1CCCCCC1 [Example 98, N-Cycloheptyl-N-(2-{[2-(4-hydroxy-2-oxo-2,3-dihydro-1,3-benzothiazol-7-yl)ethyl]amino}ethyl)-N^3-(2-phenylethyl)-β-alaninamide dihydrobromide salt]	0.8
